Experiments:
Assay in all cases: relative viability (nuclei count vs DMSO), 5 days (fraction); higher = more cells survive
Kobe2602 + Palbociclib = compound: C1=CC(=CC=C1NC(=S)NNC2=C(C=C(C=C2[N+](=O)[O-])C(F)(F)F)[N+](=O)[O-])F [Kobe2602] + CC(=O)c1c(C)c2cnc(Nc3ccc(N4CCNCC4)cn3)nc2n(C2CCCC2)c1=O [Palbociclib] (partner 0.5 µM)
Summary of the method: (§1)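 One day after seeding in 1536-well plates, lung cancer cell lines were dosed by pin tool. Dosing was either single-drug or a fixed anchor-drug dose plus five library-drug doses (not always all listed) in √10 steps. After 5 days, nuclei were stained in one fix-and-stain step and counted on 4× images, and relative viability is the nuclei count of treated wells over that of vehicle wells, given as the median of duplicate plates.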

[1] = compound: COc1cc2nccc(Oc3ccc(NC(=O)C4(C(=O)Nc5ccc(F)cc5)CC4)cc3)c2cc1OC [Cabozantinib] + CC(C)C[C@H](NC(=O)[C@H](Cc1ccccc1)NC(=O)c1cnccn1)B(O)O [Bortezomib] (partner 0.002 µM)
Summary of the method: as §1

Cabozantinib + Foretinib = compound: COc1cc2nccc(Oc3ccc(NC(=O)C4(C(=O)Nc5ccc(F)cc5)CC4)cc3)c2cc1OC [Cabozantinib] + COc1cc2c(Oc3ccc(NC(=O)C4(C(=O)Nc5ccc(F)cc5)CC4)cc3F)ccnc2cc1OCCCN1CCOCC1 [Foretinib] (partner 0.25 µM)
Summary of the method: as §1

Cabozantinib + Lapatinib = compound: COc1cc2nccc(Oc3ccc(NC(=O)C4(C(=O)Nc5ccc(F)cc5)CC4)cc3)c2cc1OC [Cabozantinib] + CS(=O)(=O)CCNCc1ccc(-c2ccc3ncnc(Nc4ccc(OCc5cccc(F)c5)c(Cl)c4)c3c2)o1 [Lapatinib] (partner 2 µM)
Summary of the method: as §1

Cell Line | relative viability (Kobe2602 + Palbociclib; first compound 0.2 µM) | relative viability (Kobe2602 + Palbociclib; first compound 0.6325 µM) | relative viability (Kobe2602 + Palbociclib; first compound 2 µM) | relative viability (Kobe2602 + Palbociclib; first compound 6.325 µM) | relative viability (Kobe2602 + Palbociclib; first compound 20 µM) | relative viability ([1]; first compound 0.02 µM) | relative viability ([1]; first compound 0.06325 µM) | relative viability ([1]; first compound 0.2 µM) | relative viability ([1]; first compound 0.6325 µM) | relative viability ([1]; first compound 2 µM) | relative viability (Cabozantinib + Foretinib; first compound 0.02 µM) | relative viability (Cabozantinib + Foretinib; first compound 0.06325 µM) | relative viability (Cabozantinib + Foretinib; first compound 0.2 µM) | relative viability (Cabozantinib + Foretinib; first compound 0.6325 µM) | relative viability (Cabozantinib + Foretinib; first compound 2 µM) | relative viability (Cabozantinib + Lapatinib; first compound 0.02 µM) | relative viability (Cabozantinib + Lapatinib; first compound 0.06325 µM) | relative viability (Cabozantinib + Lapatinib; first compound 0.2 µM) | relative viability (Cabozantinib + Lapatinib; first compound 0.6325 µM) | relative viability (Cabozantinib + Lapatinib; first compound 2 µM)
HOP-62 | 0.442 | 0.499 | 0.419 | 0.456 | 0.485 | 0.779 | 0.828 | 0.56 | 1.07 | 1.06 | 1.17 | 1.19 | 1.06 | 1 | 1.24 | 1.05 | 1.3 | 1.19 | 1.2 | 1.14
LC-2-ad | 0.466 | 0.514 | 0.533 | 0.506 | 0.484 | 1.06 | 1.17 | 0.863 | 0.865 | 0.821 |  | 1.03 | 0.889 | 1.02 | 0.89 | 0.938 | 1.04 | 0.876 | 0.622 | 0.253
LCLC-97TM1 | 0.192 | 0.242 |  | 0.218 | 0.194 |  | 1.02 | 0.653 | 0.967 | 0.96 | 0.938 | 1.1 | 0.993 | 1.04 | 0.879 |  | 1.21 | 0.927 | 1.13 | 1.09
LOU-NH91 | 0.475 | 0.5 | 0.537 | 0.526 | 0.529 | 0.484 | 0.55 | 0.457 | 0.508 | 0.551 | 0.89 | 0.997 |  | 0.966 | 0.992 | 0.687 | 0.776 | 0.781 | 0.711 | 0.712
LU99A | 0.424 | 0.488 | 0.411 | 0.473 | 0.451 | 1.13 | 1.16 | 1.17 | 0.986 | 1.06 | 0.805 | 0.922 | 0.906 | 0.784 | 0.838 | 0.896 | 1.07 | 0.985 | 0.996 | 0.931
LXF-289 | 0.585 | 0.597 | 0.59 | 0.556 | 0.62 | 1.09 | 1.03 | 1.01 | 0.956 | 1 | 0.974 | 1 | 0.934 | 1.02 | 0.993 | 0.91 | 0.922 | 0.896 | 0.918 | 0.92
NCI-H23 | 0.559 | 0.568 | 0.446 | 0.522 | 0.544 |  | 1.31 | 0.996 | 0.959 | 0.945 |  | 1.03 | 0.989 | 0.904 | 0.836 |  | 1.37 | 1.07 | 1.04 | 0.885
NCI-H322M | 0.477 | 0.535 | 0.485 | 0.491 | 0.559 | 1.2 | 1.34 |  | 1.17 | 1.36 | 0.967 | 1.21 | 0.899 | 0.874 | 0.931 | 0.454 | 0.632 |  | 0.584 | 0.58
NCI-H460 |  | 0.22 | 0.184 | 0.145 | 0.176 | 1.38 | 1.15 | 1.12 | 1.13 | 1.13 | 1.03 | 1.04 | 0.93 | 1 | 1.07 | 1.19 | 1.13 | 0.958 | 0.97 | 0.981
NCI-H520 | 0.239 | 0.217 | 0.249 | 0.231 | 0.205 | 0.878 | 0.73 | 0.703 | 0.483 | 0.515 | 0.756 | 0.756 | 0.778 | 0.804 | 0.889 | 1.08 | 0.924 | 0.72 | 0.973 | 0.566
NCI-H647 | 0.334 | 0.467 | 0.373 | 0.425 | 0.409 | 1.17 | 1.17 | 1.19 | 0.893 | 1.13 | 1.23 | 1.1 | 1.1 | 1.14 | 0.981 | 1.29 | 1.45 | 1.15 | 1.13 | 0.734
NCI-H650 | 0.31 | 0.357 | 0.344 | 0.402 | 0.372 | 0.691 | 0.998 | 0.861 | 0.737 | 0.627 |  | 1.03 | 1.06 | 0.999 | 0.984 | 0.787 | 1.06 | 1.23 | 0.491 | 0.766
NCI-H661 | 0.405 | 0.416 | 0.428 | 0.414 | 0.475 | 0.799 | 0.855 | 0.915 | 0.683 | 0.799 | 0.985 | 1.04 | 1.01 | 1.02 | 1.09 | 0.46 | 0.467 | 0.502 | 0.449 | 0.343
NCI-H727 | 0.665 | 0.703 | 0.635 |  | 0.704 | 0.704 | 0.901 | 0.718 | 0.819 | 0.947 | 0.675 | 1.06 | 1.08 | 0.818 | 0.889 | 0.61 | 1.27 | 0.702 | 0.806 | 0.783
NCI-H838 | 0.196 | 0.215 | 0.199 | 0.246 | 0.199 | 0.746 | 0.95 | 0.941 | 0.685 | 1.04 | 1.13 | 1.08 | 1.04 | 1.02 | 1.01 | 1.01 | 0.997 | 0.895 | 0.881 | 0.877
NCI-H1355 | 0.341 | 0.367 | 0.385 | 0.398 | 0.406 | 1.05 | 1.29 | 1.12 | 1.23 | 1.18 | 1.08 | 1.1 | 1.03 | 1.08 | 0.949 | 0.825 | 1.12 | 1.02 | 0.979 | 1.03
